Results published in patent US11603568B2, “NOX2 as a biomarker of radiotherapy efficiency in cancer patients” (Institut Gustave-Roussy, priority 2016, dated 2023).

Experiments:
Assay type in all cases: cell-based
[1] = system: murine RAW264.7 macrophages; assay: Immunoblots of ATMS1981*, ATM, IRF5 and NOX2 expression in murine RAW264.7 macrophages; details: for ATM activation (ATMS1981*) by the agent / IRF5 expression induced by the agent: 24 hours, 10 μM CDDP, 200 ng/ml NCZ, 10 μM Olaparib (FIGS. 3E, 3H-3J)
Description: (§1) The human monocyte cell line THP1 cells and the murine macrophage-like RAW264.7 cells were maintained in RMPI-1640-Glutamax medium (Life technology) supplemented with 10% heat-inactivated fetal bovine serum (Hycultec GmbH) and 100 UI/ml penicillin-streptomycin (Life technology). To obtain THP1 macrophages, THP1 monocytes were differentiated with 320 nM of PMA (Invivogen) during 24 h. Then, cells were washed three times to remove PMA and non-adherent cells. For the generation of monocytes-derived macrophages (hMDM), buffy coats from healthy donor blood were obtained from the French blood bank (Etablissement Français du Sang) under the control of convention with the INSERM. In accordance with French law, written informed consent for the use of cells for clinical research was obtained from each donor. Monocytes were obtained from buffy coats and were differentiated into macrophages by using human AB serum in macrophage medium, as previously described. […] All cells were maintained under 5% CO2 humidified atmosphere at 37° C. For hypoxic experiments, cells were incubated in the hypoxic hood (Scitive) under 1% 02, with 5% CO2 humidified atmosphere at 37° C. Dimethyl Sulfoxide (DMSO), Lipopolysaccharides (LPS), Dimethyloxalylglycine (DMOG), NAcetyl-L-cysteine (NAC), Diphenyleneiodonium chloride (DPI), Neocarzinostatin (NCZ), cis-Diammineplatinum(II) dichloride (CDDP) were purchased from Sigma-Aldrich. Recombinant murine IFN-γ (mIFN-γ) was obtained from PeproTech Recombinant Human IFN-γ was from R&D Systems. KU55933 was from Tocris Bioscience. Mn(III)tetrakis (4-benzoic acid) porphyrin Chloride (MnTBAP) was from Calbiochem. Olaparib was from Selleckchem. Phorbol 12-myristate 13-acetate (PMA) was from Invivogen.
(§2) Human MDM (10^6) were activated by treatment with […] recombinant human IFN-γ for 24 h. THP1 monocytes were differentiated into macrophages by 320 nM PMA for 24 h. Then, macrophages were activated with 20 ng/ml recombinant human IFN-γ or 100 ng/ml LPS during 24 h. RAW264.7 macrophages were activated with 20 ng/ml recombinant murine IFN-γ or 100 ng/ml LPS for 24 h.
(§3) Cells were seeded in 6-well plates, 12-well plates or 25 cm^2 flasks and irradiated with gamma-ray irradiator IBL-637 (Cs137, 1 Gy/min, gamma CIS-Bio International, IBA, Saclay, France) or with X-ray irradiator (1Gy/min, X-RAD 320, Precision X-Ray). Cells were harvested at indicated time points (hMDMs and THP1 macrophages at 96 h, RAW264.7 macrophages at 6 h) after irradiation for subsequent experiments.
(§4) Cells were washed twice with cold PBS and lysed with NEHN buffer (0.5% NP40, 20% Glycerol, 300 mM NaCl, 20 mM Herps, pH 7.5, and 1 mM EDTA) complemented with 2.5 mM DTT and the protease and phosphatase inhibitor (Roche) at 4° C. 5-20 μg of proteins were separated by NuPAGE 4-12% or 10% SDS-PAGE gel (Invitrogen) and then were transferred onto a nitrocellulose membrane (0.2 Micron, Bio-Rad). Membranes were blocked with 5% nonfat milk or 5% Bovine Serum Albumine (BSA) in Tris-buffered saline and 0.1% Tween 20 (TBS-T) at room temperature for 1 h and then subsequently probed with primary antibodies (1/5000-1/1000) overnight at 4° C. Then, membranes were incubated with appropriate horseradish peroxidase-conjugated anti-rabbit or anti-mouse IgG (SouthernBiotech) for 1 h at room temperature.

[2] = system: hMDM; assay: Immunoblots of ATMS1981*, ATM, IRF5 and NOX2 expression in human monocyte-derived macrophages (hMDM)
Description: as §1, with “Dimethyl Sulfoxide (DMSO), Lipopolysaccharides (LPS), Dimethyloxalylglycine (DMOG), NAcetyl-L-cysteine (NAC), Diphenyleneiodonium chloride (DPI), Neocarzinostatin (NCZ), cis-Diammineplatinum(II) dichloride (CDDP) were purchased from Sigma-Aldrich. Recombinant murine IFN-γ (mIFN-γ) was obtained from PeproTech Recombinant Human IFN-γ was from R&D Systems. KU55933 was from Tocris Bioscience. Mn(III)tetrakis (4-benzoic acid) porphyrin Chloride (MnTBAP) was from Calbiochem. Olaparib was from Selleckchem. Phorbol 12-myristate 13-acetate (PMA) was from Invivogen.” left out

[3] = system: macrophages; assay: Macrophage viability (LDH release); details: data not shown; cells and concentrations as in the activation experiments
Source text: The release of LDH in the supernatants of cultured cells was detected using Cytotoxicity Detection KitPLUS (LDH) from Roche according to the manufacturers' instructions.

[4] = system: murine RAW264.7 macrophages; assay: Detection of ROS production (H2DCFDA staining, flow cytometry); details: for ROS production after IR or mIFN-γ in presence of the inhibitor: 2 Gy single dose or 20 ng/ml mIFN-γ, NAC 1 μg/ml, DPI 200 nM
Description: Hydrogen peroxide and anion superoxide production were determined by staining cells with 5 μM of 2,7-dichlorodihydrofluorescein diacetate (H2DCFDA, Sigma) for 40 min at 37° C. Cells were then washed twice with Hanks' balanced salt solution (HBSS, from Thermo Fisher Scientific) and suspended in cold HBSS solution containing 1% FBS for FACS analysis.
Considering that reactive oxygen species (ROS) have been involved in both ATM activation and macrophage differentiation, the role of ROS production during macrophage activation was investigated.

[5] = system: PMA-treated human THP1 monocytes; assay: Immunoblots of ATMS1981*, ATM, IRF5 and NOX2 expression in PMA-treated human THP1 monocytes; details: for ATM activation (ATMS1981*) by the agent / IRF5 expression induced by the agent: 24 hours, 20 ng/ml human IFN-γ, 100 ng/ml LPS, 10 μM CDDP (FIGS. 3D, 3F, 3G)
Description: as §1, §2, §3, §4

[6] = system: murine RAW264.7 macrophages; assay: Confocal immunofluorescence of DNA damage-associated nuclear foci; details: 24 h treatment; 20 ng/ml mIFN-γ, 100 ng/ml LPS or 10 μM CDDP (FIGS. 3A-3C)
Description: Cells were grown on coverslips and were treated as indicated. After treatment, cells were rinsed twice, fixed with 10% neutral buffered formalin (Sigma-Aldrich) for 10 min and then permeabilized with 0.3% Triton X-100 in PBS for 15 min. Cells were then washed twice with PBS and were blocked with 10% FBS in PBS for 1 h at room temperature, followed by incubation with primary antibodies (1/100) in 10% FBS in PBS for 1 h30 min at room temperature. Then, samples were incubated with secondary antibodies using Alexa Fluor-488 green or Alexa Fluor-546 red (1/500, Life Technologies) and Hoechst 33342 for nuclei (1/1000, Thermo Fisher Scientific) in 10% FBS in PBS for 30 min at room temperature. Coverslips were mounted with Fluoromount-G (SouthernBiotech) ant then visualized with Leica TCS SPE confocal microscope (Leica Microsystemes, France).

[7] = 10 μM Olaparib, 2 Gy, 6 hours (FIG. 2P)
[8] = 10 μM MnTBAP, 8 Gy single dose, 48 hours (FIG. 4G)
[9] = 1 μg/ml NAC, 2 Gy, 6 hours or 20 ng/ml mIFN-γ, 24 hours (FIGS. 4E, 4F)

O=c1cc(-c2cccc3c2Sc2ccccc2S3)oc(N2CCOCC2)c1 [KU55933]
γ-H2AX and ATMS1981* phosphorylations and the up-regulation of IRF5 expression after irradiation ([1]; 20 μM KU55933, 2 Gy single dose, 6 hours (FIG. 2N)): impaired | γ-H2AX and ATMS1981* phosphorylations and the up-regulation of IRF5 expression after irradiation ([2]; 10 μM KU55933, 4 Gy single dose, 96 hours (FIG. 2O)): impaired | macrophage viability [3]: without altering macrophage viability

c1ccc2c(c1)[I+]c1ccccc1-2 [DPI, Diphenyleneiodonium chloride]
ATMPS1981* and IRF5 up-regulation after IR or mIFN-γ ([1]; 200 nM DPI, 2 Gy, 6 hours or 20 ng/ml mIFN-γ, 24 hours (FIGS. 5L, 5M)): impaired | ROS production after IR or mIFN-γ in presence of the inhibitor [4]: impaired | macrophage viability [3]: without modifying macrophage viability

Neocarzinostatin
ATM activation (ATMS1981*) by the agent ([1]; 20 ng/ml mIFN-γ): activated ATM | IRF5 expression induced by the agent ([1]; 20 ng/ml mIFN-γ): increased IRF5 expression

COC(=O)CNC(=O)C(=O)OC [DMOG, Dimethyloxalylglycine]
ATMS1981* and IRF5 expressions reduced after mIFN-γ stimulation ([1]; 500 μM DMOG, 20 ng/ml mIFN-γ, 24 hours (FIG. 4K)): confirmed | IR-mediated ATMS1981* and IRF5 expressions ([1]; 500 μM DMOG, 2 Gy single dose, 6 hours (FIG. 4I)): reduced

N.N.[Cl][Pt][Cl] [Cisplatin, cis-Diammineplatinum(II) dichloride]
ATM activation (ATMS1981*) by the agent ([1]; 20 ng/ml mIFN-γ): activated ATM | IRF5 expression induced by the agent ([1]; 20 ng/ml mIFN-γ): increased IRF5 expression | ATM activation (ATMS1981*) by the agent [5]: activated ATM | IRF5 expression induced by the agent [5]: increased IRF5 expression | ATMS1981*+ and γ-H2AX+ nuclear foci [6]: activated ATM

O=C(c1cc(Cc2n[nH]c(=O)c3ccccc23)ccc1F)N1CCN(C(=O)C2CC2)CC1 [Olaparib]
ATM activation after irradiation [1, 7]: enhancement of ATM activation | IRF5 expression after irradiation (inflammatory macrophage activation elicited by IR) [1, 7]: increased expression of IRF5 | ATM activation (ATMS1981*) by the agent ([1]; 20 ng/ml mIFN-γ): activated ATM | IRF5 expression induced by the agent ([1]; 20 ng/ml mIFN-γ): increased IRF5 expression

O=C(O)c1ccc(C2=C3C=CC(=N3)C(c3ccc(C(=O)O)cc3)=c3ccc([nH]3)=C(c3ccc(C(=O)O)cc3)c3ccc([n-]3)C(c3ccc(C(=O)O)cc3)c3ccc2[n-]3)cc1.[Cl-].[Mn+3] (stereo not drawn) [MnTBAP, Mn(III)tetrakis (4-benzoic acid) porphyrin Chloride]
activating phosphorylation of ATM (ATMS1981*) after IR [5, 8]: inhibited | increased expression of IRF5 after IR [5, 8]: reduced | ROS production after IR or mIFN-γ in presence of the inhibitor [4]: blunted the ROS production | macrophage viability [3]: without impacting macrophage viability

CC(=O)N[C@@H](CS)C(=O)O [NAC, NAcetyl-L-cysteine]
activating phosphorylation of ATM (ATMS1981*) after IR or mIFN-γ [1, 9]: inhibited | increased expression of IRF5 after IR or mIFN-γ [1, 9]: reduced | ROS production after IR or mIFN-γ in presence of the inhibitor [4]: blunted the ROS production | macrophage viability [3]: without impacting macrophage viability

B1: mIFN-γ: Recombinant murine IFN-γ from PeproTech, classical macrophage activator (protein, UniProt P01580 23-155, looked up)
Interferon gamma: HGTVIESLESLNNYFNSSGIDVEEKSLFLDIWRNWQKDGDMKILQSQIISFYLRLFEVLKDNQAISNNISVIESHLITTFFSNSKAKKDAFMSIAKFEVNNPQVQRQAFNELIRVVHQLLPESSLRKRKRSRC
NOX2 up-regulated (immunoblot) ([1]; 20 ng/ml mIFN-γ, 24 hours (FIG. 5E)): confirmed | ATM activation (ATMS1981*) by the agent ([1]; 20 ng/ml mIFN-γ): activation of ATM | IRF5 expression induced by the agent ([1]; 20 ng/ml mIFN-γ): increased expression of IRF5 | ROS production induced by the treatment ([4]; 20 ng/ml mIFN-γ (FIGS. 4C, 4D)): induced ROS production | ATMS1981*+ and γ-H2AX+ nuclear foci [6]: accumulation of ATMS1981*+ and γ-H2AX+ foci

B2: IFN-γ: Recombinant Human IFN-γ from R&D Systems, classical macrophage activator (protein, UniProt P01579 24-161, looked up)
Interferon gamma: QDPYVKEAENLKKYFNAGHSDVADNGTLFLGILKNWKEESDRKIMQSQIVSFYFKLFKNFKDDQSIQKSVETIKEDMNVKFFNSNKKKRDDFEKLTNYSVTDLNVQRKAIHELIQVMAELSPAAKTGKRKRSQMLFRG
NOX2 up-regulated (immunoblot) ([2]; 4 μg/ml hIFN-γ, 24 hours (FIG. 5B)): confirmed | NOX2 up-regulated (immunoblot) ([5]; 20 ng/ml hIFN-γ, 24 hours (FIG. 5C)): confirmed | ATM activation (ATMS1981*) by the agent [5]: activation of ATM | IRF5 expression induced by the agent [5]: increased expression of IRF5
